Laboratory results as given in US12005050B2, “Methods for preventing or treating H. pylori infection” (TENNOR THERAPEUTICS (SUZHOU) LIMITED, priority 2022, dated 2024).

Experiments:
Helicobacter pylori = experiment: H. pylori eradication by urea breath test (UBT) (Example 1); type: in vivo; conditions: for Patients with UBT negative results: N = 10
Experimental: 40 asymptomatic healthy patients that are positive for Helicobacter pylori infection were admitted to the trial. The 40 patients were randomly allocated to four groups at a ratio of 1:1:1:1.
Different therapies were administered to the patients of each group according to the schedule below: • Group A: • Compound I capsule 200 mg/time (2 capsules, 100 mg/capsule), twice per day (BID); rabeprazole sodium enteric-coated tablet 20 mg/time (1 tablet, 20 mg/tablet), twice per day (BID) • Group B: • Compound I capsule 400 mg/time (4 capsules, 100 mg/capsule), twice per day (BID); rabeprazole sodium enteric-coated tablet 20 mg/time (1 tablet, 20 mg/tablet), twice per day (BID) • Group C: • Compound I capsule 600 mg/time (6 capsules, 100 mg/capsule), twice per day (BID); rabeprazole sodium enteric-coated tablet 20 mg/time (1 tablet, 20 mg/tablet), twice per day (BID) • Group D: • Compound I capsule 400 mg/time (4 capsules, 100 mg/capsule), twice per day (BID); rabeprazole sodium enteric-coated tablet 20 mg/time (1 tablet, 20 mg/tablet), twice per day (BID); amoxicillin capsule 1 g/time (4 capsules, 0.25 g/capsule), twice per day (BID)
All patients were admitted to the clinical research center 1 day before dosing (D-1 Day), randomly allocated to respective groups and completed examinations for safety and baseline indicators. From day 1 to day 14, respective therapies/drugs were orally administered to the patients within 30 minutes after breakfast and dinner. On day 15, the last dose was administered orally to the patients within 30 minutes after breakfast. During the trial, each patient was dosed for 29 times in total. All patients left the hospital after completing a safety tolerance assessment on day 17 and returned to the clinical research center for urea breath test (UBT) follow-up examination between days 44 and 50 to evaluate the effect of Helicobacter pylori eradication.
The initial analysis of eradication effect was based on the full data set, which is defined as all patients who were randomly selected and received at least one dose of the trial combination therapy.
The eradication effects in each trial group were evaluated by UBT tests (negative or positive) conducted at the baseline time point, on day 8 after drug administration, day 16 after drug administration and day 44-50 of follow-up visit. Descriptive analysis was done using frequency (percentage), and comparison between groups was made. Fisher precision test was used to conduct between-group comparison analysis. As an aid to the analysis, the UBT values were listed as mean, standard deviation, median, minimum, maximum, and deviation from the baseline.

[1] = human, in vivo
Experimental: The 40 patients were randomly allocated to four groups at a ratio of 1:1:1:1. […] The detection linear range was as below: • Compound I: Lower Limit Of Quantitation (LLOQ): 1.00 ng/mL; Upper Limit Of Quantitation (ULOQ): 1,000 ng/mL • Rabeprazole sodium: LLOQ: 2.00 ng/mL; […] […] Pharmacokinetics Evaluation Plasma drug concentrations of various groups at different time points were determined, including: arithmetic mean, standard deviation, minimum, median, maximum, geometric mean, coefficient of variation, and coefficient of geometric variation. The pharmacokinetic parameters calculated from the first and last administration were descriptively analyzed according to various trial groups, including: arithmetic mean, standard deviation, minimum value, median, maximum value, geometric mean, coefficient of variation, geometric coefficient of variation, etc. In addition, the accumulation index AUC0-tau, ss(D15)/AUC0-tau (D1) was calculated. […]

Structure (SMILES): CO[C@H]1/C=C/O[C@@]2(C)Oc3c(C)c(O)c4c(c3C2=O)C2=NC3(CCN(CCn5c([N+](=O)[O-])cnc5C)CC3)NC2=C(NC(=O)/C(C)=C\C=C\[C@H](C)[C@H](O)[C@@H](C)[C@@H](O)[C@@H](C)[C@H](OC(C)=O)[C@@H]1C)C4=O [Compound I, 4-Deoxy-3,4-[2-spiro-[1-[2-(2-methyl-5-nitro-imidazol-1-yl)ethyl]-piperidin-4-yl]]-(1H)-imidazo-(2,5-dihydro)rifamycin]
- Patients with UBT negative results (Helicobacter pylori; Day 8, Group A: Compound I 200 mg BID + rabeprazole sodium 20 mg BID): 7 (70.0) n(%)
- Patients with UBT negative results (Helicobacter pylori; Day 8, Group B: Compound I 400 mg BID + rabeprazole sodium 20 mg BID): 10 (100.0) n(%)
- Patients with UBT negative results (Helicobacter pylori; Day 8, Group C: Compound I 600 mg BID + rabeprazole sodium 20 mg BID): 8 (80.0) n(%)
- Patients with UBT negative results (Helicobacter pylori; Day 8, Group D: Compound I 400 mg BID + rabeprazole sodium 20 mg BID + amoxicillin 1 g BID): 7 (70.0) n(%)
- Patients with UBT negative results (Helicobacter pylori; Day 16, Group A: Compound I 200 mg BID + rabeprazole sodium 20 mg BID): 3 (30.0) n(%)
- Patients with UBT negative results (Helicobacter pylori; Day 16, Group B: Compound I 400 mg BID + rabeprazole sodium 20 mg BID): 5 (50.0) n(%)
- Patients with UBT negative results (Helicobacter pylori; Day 16, Group C: Compound I 600 mg BID + rabeprazole sodium 20 mg BID): 6 (60.0) n(%)
- Patients with UBT negative results (Helicobacter pylori; Day 16, Group D: Compound I 400 mg BID + rabeprazole sodium 20 mg BID + amoxicillin 1 g BID): 10 (100.0) n(%)
- Patients with UBT negative results (Helicobacter pylori; Follow up period (Day 44~50), Group A: Compound I 200 mg BID + rabeprazole sodium 20 mg BID): 0 (0.0) n(%)
- Patients with UBT negative results (Helicobacter pylori; Follow up period (Day 44~50), Group B: Compound I 400 mg BID + rabeprazole sodium 20 mg BID): 3 (30.0) n(%)
- Patients with UBT negative results (Helicobacter pylori; Follow up period (Day 44~50), Group C: Compound I 600 mg BID + rabeprazole sodium 20 mg BID): 4 (40.0) n(%)
- Patients with UBT negative results (Helicobacter pylori; Follow up period (Day 44~50), Group D: Compound I 400 mg BID + rabeprazole sodium 20 mg BID + amoxicillin 1 g BID): 8 (80.0) n(%)
- Eradication rate of H. pylori (Helicobacter pylori; Follow-up period (day 44 to day 50), Group D: Compound I 400 mg BID + rabeprazole sodium 20 mg BID + amoxicillin 1 g BID): 80%
- Effect of rabeprazole and amoxicillin on the pharmacokinetic profile of Compound I [1]: no significant effect
